According to article PMC4147597 (Toxins, 2014):
pEC50, pIC50: −log10 of the molar value. Read-outs that look alike come from different tables or passages of the source.

Legend:
[1] = target: T1, hIK1 (Homo sapiens, UniProt O15554); type: cell-based; conditions: for enhancement of the amplitude of IK currents: 0.3 μM free Ca^2+ in pipette, voltage ramps
T1 construct: expressed in transfected cells; host or cells: HEK293T cells, transient transfection with Lipofectamine 2000

[2] = tested on: voltage-gated L-type Ca^2+ channels; assay: L-type Ca^2+ channels from DRG, whole-cell patch-clamp; type: cell-based; conditions: 100 μM; rat DRG; n = 5
[3] = tested on: voltage-gated T-type Ca^2+ channels; assay: T-type Ca^2+ channels from DRG, whole-cell patch-clamp; type: cell-based; conditions: 100 μM; rat DRG; n = 5
[4] = tested on: BK channels; assay: BK channel current in HEK293T cells, whole-cell patch-clamp; type: cell-based; conditions: 100 μM, n = 5
[5] = tested on: mouse phrenic nerve-diaphragm preparations; assay: phrenic nerve-diaphragm twitch-tension (phrenic nerve conduction block)
Experimental: The twitch-tension experiments were performed using mouse phrenic nerve-diaphragm preparations. Adult Kunming albino mice (18–22 g of either gender) were killed by cervical dislocation. After dissection, the preparations were placed in a Plexiglas chamber immersed in Tyrode’s solution or toxin solutions continuously bubbled with 95% O2, 5% CO2 and maintained at 30–32 °C. The electrical stimulation was applied indirectly to the phrenic nerve with a suction electrode at 0.2 Hz with pulses of 0.2 ms in duration and supramaximally. For direct stimulation, the muscle was stimulated at a frequency of 0.2 Hz (supramaximal, 2 ms, square wave). A mechanical-electric transducer made of a semiconductor strain gauge was used to transform the twitch responses into electric signals. […] The time from the application of HNTX-I to complete blocking of neuromuscular transmission was defined as blocking time, and the concentrations of HNTX-I we used were 1 μM, 10 μM and 100 μM.

[6] = tested on: mice; assay: acute in vivo toxicity in mice; design: species or system mouse
Experimental: (§1) Five mice (17–19 g) were injected intravenously with multiple […] doses of 0.5–2.5 mg/kg HNTX-I (in mammalian Ringer solution with 1% ethanol and 2.5% BSA). Five control mice were injected with an equal volume of the vehicle. The toxicity of HNTX-I was qualitatively assayed by intra-abdominal injection into adult male cockroaches (Periplaneta) with body weights of 0.8–1.2 g at doses of 50–250 μg/g using 10-μL solutions (in 0.85% (w/v) normal saline).

[7] = tested on: American cockroach (Periplaneta americana); assay: acute in vivo toxicity in American cockroach; conditions: intra-abdominal injection, 50–250 μg/g; adult male; 7 days
Experimental: as §1

[8] = tested on: voltage-gated Na^+ channels; assay: voltage-gated Na^+ channels, summary of screening; type: cell-based, rat; conditions: 100 μM
[9] = tested on: voltage-gated Ca^2+ channels; assay: voltage-gated Ca^2+ channels, summary of screening; type: cell-based, rat; conditions: 100 μM
[10] = tested on: hERG K^+ channel; conditions: 100 μM
[11] = tested on: neuronal TTX-S VGSCs; conditions: adult rat dorsal root ganglion neurons; ref previous works (ref 9); cited from earlier work
[12] = tested on: VGSCs in cardiac or skeletal muscles; conditions: mammals; ref previous works; cited from earlier work
[13] = tested on: rNav1.2/β1; conditions: Xenopus laevis oocytes; ref previous works; cited from earlier work
[14] = tested on: para/tipE; conditions: Xenopus laevis oocytes; ref previous works; cited from earlier work
[15] = tested on: tetrodotoxin-resistant (TTX-R) Na^+ channels; conditions: cited from earlier work
[16] = tested on: VGSCs; conditions: ref previous work; cited from earlier work
Text: In general, hydrophobic and polar residue hot spots are important binding determinants in toxins and ion channel interactions. […] HNTX-I should therefore present a similar type of interacting surface as other toxins whose binding sites are at the outer membrane. In our previous work, we have shown that such a basic profile ...

[17] = target: T1, hIK1; conditions: hIK1 cell line; read-out: EC50 for hIK1 activation; cited from earlier work
Text: The intermediate-conductance Ca^2+-activated K^+ (IK) channels belong to the gene family of calcium/calmodulin-regulated and voltage-independent K^+ channels (SK1/SK2/SK3 and IK) and contribute to cellular functions by producing membrane hyperpolarization, thus regulating intracellular Ca^2+ signaling. IK channels are gated solely by internal Ca^2+, with a unit conductance of 20–85 pS. Expression of hIK1 in HEK293T cells gives rise to inwardly rectifying K^+ currents, which are activated by submicromolar concentrations of intracellular Ca^2+ (EC50 = 0.3 μM). […] After the application of 80 μM HNTX-I, NS309 still activated the current about 1.5-fold (Figure 3A). […] After the initial equilibration period, HNTX-I was added at 80 μM to yield a higher current within ~3 min. Then, 100 nM NS309 was applied and reached the peak in under 1 min. Thus, the p ...

[18] = tested on: L-type Ca^2+ channels; conditions: read-out: IC50 for block of L-type Ca^2+ channels; cited from earlier work
Text: (§2) There are a variety of valuable pharmacological tools available to study the contribution of specific IK channels to the mechanism of endothelium-dependent dilation in isolated vessels and to blood pressure control in vivo. IK channel modulators mainly comprise small organic compounds and venom-derived peptides. These different classes of chemicals modulate the channel by binding to either the external or the internal face of the ion-conducting pore. Among the different ion modulators, venom-derived peptides usually block their targets with high affinity, that is, with IC50 in the […] ...

[19] = tested on: cardiac hERG K^+ channels; conditions: micromolar concentrations; cited from earlier work
Text: as §2

[20] = intravenous, 0.5–2.5 mg/kg, seven days

T1 sequence (O15554 whole entry): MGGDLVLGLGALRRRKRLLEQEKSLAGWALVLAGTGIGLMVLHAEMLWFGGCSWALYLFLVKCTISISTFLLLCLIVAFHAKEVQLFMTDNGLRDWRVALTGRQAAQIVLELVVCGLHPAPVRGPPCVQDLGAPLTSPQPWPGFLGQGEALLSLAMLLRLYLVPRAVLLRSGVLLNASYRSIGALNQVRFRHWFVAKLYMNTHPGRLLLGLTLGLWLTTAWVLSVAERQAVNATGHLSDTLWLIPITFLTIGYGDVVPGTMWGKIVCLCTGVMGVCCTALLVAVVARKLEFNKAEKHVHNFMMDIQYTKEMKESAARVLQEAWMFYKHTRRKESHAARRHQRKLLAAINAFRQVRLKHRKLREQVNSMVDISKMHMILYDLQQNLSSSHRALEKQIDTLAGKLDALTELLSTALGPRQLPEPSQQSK

## Hainantoxin-I [HNTX-I]
[1]; 40 μM HNTX-I, n = 5
  enhancement of the amplitude of IK currents: 33.2% ± 0.5
[1]; 80 μM HNTX-I
  reversibility / dose-dependency on hIK1: clearly demonstrated the dose-dependency, as well as reversible nature
[1]; 80 μM HNTX-I, after initial equilibration, before NS309
  time to yield higher current: ~ 3 min
[1]; 80 μM HNTX-I, n = 5
  enhancement of the amplitude of IK currents: 97% ± 0.7
[1]; 80 μM HNTX-I, current shortly before application = 100%
  Imax: 197%
[1]; 200 μM HNTX-I, compared with 80 μM
  Imax at higher concentration: did not change
[1]; after 40 μM HNTX-I applied, n = 5
  time to reach higher current level: ~ 3 min
[1]; washing after 40 μM HNTX-I, n = 5
  return of current to baseline upon washing: the current returned to baseline with approximately the same time characteristics
[2]
  effect on L-type Ca^2+ channels: no effect
[3]
  effect on T-type Ca^2+ channels: no effect
[4]
  effect on BK channels: no effect
[5]; 1 μM, Tyrode's solution, 30–32 °C
  inhibition of nerve-evoked twitch tension: did not inhibit the nerve-evoked twitch tension
[5]; 100 μM or lower
  influence on neuromuscular transmission: did not influence the neuromuscular transmission
[5]; 10 and 100 μM, within 4 h, n = 5
  blockade of twitch responses: no apparent blockades in the twitch responses
[6]; intravenous, 0.5, 1.0, 1.5, 2.0 and 2.5 mg/kg, five mice per dose, seven-day study
  clinical appearance: appeared clinically normal
[6]; [20]
  aggressive/defensive responses: no aggressive/defensive responses were elicited
  death: did not cause death at any concentration
  depilation of pelage: not depilated
[7]
  symptoms of poisoning: did not produce symptoms of poisoning
[8]
  sensitivity of voltage-gated Na^+ channels: insensitive
[9]
  sensitivity of voltage-gated Ca^2+ channels: insensitive
[10]
  sensitivity of hERG K^+ channels: insensitive
[10]; HEK293T cells, n = 5
  effect on hERG K^+ channel: no effect
[11]
  effect on neuronal TTX-S VGSCs: no effect
[12]
  effect on VGSCs in cardiac or skeletal muscles: nor does it target VGSCs
[13]
  block of rNav1.2/β1: selectively blocks
[14]
  block of para/tipE: selectively blocks
[15]
  effect on TTX-R Na^+ channels: no effect
[16]
  inhibition of VGSCs in vertebrates and insects: inhibits VGSCs

## O=C1Nc2c(ccc(Cl)c2Cl)C1=NO [NS309, 3-oxime-6,7-dichloro-1H-indole-2,3-dione, reference compound]
[1]; 100 nM NS309, 80 μM HNTX-I
  activation of hIK1 channels in the presence of HNTX-I: activated hIK1 channels
[1]; 100 nM NS309 after application of 80 μM HNTX-I
  activation of current after HNTX-I (fold): about 1.5 fold
[1]; 100 nM NS309 in the presence of 80 μM HNTX-I
  influence of HNTX-I on potency and kinetics of NS309: not notably influenced by HNTX-I
[1]; 100 nM NS309 in the presence of 80 μM HNTX-I, n = 5
  time to peak of NS309 activation: under 1 min
[17]
  pEC50: 7.52
[18]
  pIC50: 5.00
[19]
  inhibition of cardiac hERG K^+ channels: inhibits

## CCn1c(=O)[nH]c2cc(Cl)c(Cl)cc21 [DC-EBIO, 5,6-dichloro-1-ethyl-1,3-dihydro-2H-benzimidazole-2-one]
[18]
  pIC50: 4.15
